Laboratory results published in US5049549A, “Rhodomycins with a modified carbohydrate unit” (Behringwerke Aktiengesellschaft, priority 1988, dated 1991).
Converted amounts (≈) assume the structure as drawn. Where two headings read alike, the source gives them in different places.

Key:
L1210 leukemia cells = assay: Cytotoxicity for L1210 leukemia cells (stem cell assay, SCA); type: cell-based; conditions: Mus musculus
Method: The test was carried out in accordance with the methods described by Hamburger and Salmon, with the modifications described below.
Conditioned medium was replaced by McCoy 5A medium. As a consequence of the high cloning rate of the L1210 leukemia cells in soft agar, the number of tumor cells per plate was reduced to 5×10^2.
The cells were incubated with various concentrations of the test substance at 37° C. for 1 h. The cells were subsequently washed twice with McCoy 5A medium and subsequently plated out in a two-layer agar system as upper layer in accordance with the Hamburger and Salmon method.
Additional parallel experiments were carried out using a continuous incubation time, in which case various concentrations of the test substance were mixed with the upper agar layer before plating out of the cells.
The plates were incubated in an incubator with 5% CO2, 20% O2 and 95% relative humidity for 5-7 days. After this time, colonies with a diameter of 60 μm were counted using an invertoscope.
The results have been reported as the percentage of colonies in treated versus untreated groups. The coefficient of variation for repeat experiments was less than 15%.
The IC50 for continuous and one-hour incubation was determined from the dose-effect plot (Tab. 1).

patients = conditions: cited from earlier work
L1210 cells = assay: Proliferation test (MTT reduction), L1210; type: cell-based
Method: (§1) L1210, A 549 or HT 29 in the exponential growth phase are incubated in a cell density of 5×10^3 cells/ml in RPMI 1640 medium in a 96-well microtest plate with various concentrations of the test substance at 37° C., 5% CO2 and 95% relative humidity for 72 h. Control experiments contain merely growth medium in place of test substance. Determinations in quadruplicate are made up for each test substance and for the control. After incubation for 65 h, 50 µl of an MTT solution (2.5 mg/ml in phosphate-buffered saline) are added. In the presence of live cells MTT is reduced to a dark-red insoluble formazan dyestuff. This reaction is complete after 7 h (L1210 cells) or after 24 h (A 549, HT 29 cells), and the supernatant medium is carefully aspirated off. The insoluble dyestuff is dissolved by addition of 100 µl of DMSO, and the extinction of the solution produced in this way is subsequently measured at a wavelength of 492 nm for each well in a 340 CC Multiscan Photometer from Flow.
(§2) The ratio of the extinctions with treated and untreated cells yields a dose-effect plot from which the concentration which just kills 50% of the cells (IC50) can be read off. The coefficient of variation for repeat tests is less than 15%.

A 549 cells = assay: Proliferation test (MTT reduction), A549; type: cell-based
Method: as §1, §2

HT 29 cells = assay: Proliferation test (MTT reduction), HT29; type: cell-based; conditions: Homo sapiens, read-out: IC50 MTT assay HT29
Method: as §1, §2

[1] = L1210, 1 h, read-out: IC50 SCA 1 h
[2] = Mus musculus, L1210, 72 h; read-out: IC50 MTT assay L1210
[3] = Homo sapiens, A549, 72 h; read-out: IC50 MTT assay A549
[4] = L1210, 1 h incubation, read-out: IC50 SCA 1 h

SMILES | IC50 (L1210 cells; [2]) [µg/mL] | IC50 (A 549 cells; [3]) [µg/mL] | IC50 (HT 29 cells; HT-29, HT29, 72 h) [µg/mL] | IC50 (L1210 leukemia cells; [4]) [µg/mL] | further results
COc1cccc2c1C(=O)c1c(O)c3c(c(O)c1C2=O)C[C@@](O)(C(=O)CO)C[C@@H]3O[C@H]1C[C@H](N)[C@H](O)[C@H](C)O1 [Adriamycin, reference compound] | – | – | – | – | IC50 (L1210 leukemia cells; [1]): 0.04 µg/mL (≈ 0.0736 µM); IC50 (L1210 leukemia cells; L1210, read-out: IC50 SCA cont.): 0.02 µg/mL (≈ 0.0368 µM); side effects of the treatment (patients; clinical use, specialist literature): damage to the circulatory system and symptoms characteristic thereof
CC[C@@]1(O)C[C@H](O[C@H]2C[C@H](NC(=O)C(F)(F)F)[C@H](NC(=O)C(F)(F)F)[C@H](C)O2)c2c(O)c3c(c(O)c2[C@H]1O)C(=O)c1cccc(O)c1C3=O [compound 15, 7-O-(3',4'-bis-(trifluoroacetamido)-2',3',4',6'-tetradeoxy-alpha-L-lyxohexopyranosyl)-β-rhodomycinone] | 0.037 (≈ 0.0524 µM) | 0.059 (≈ 0.0835 µM) | 0.1 (≈ 0.142 µM) | 0.43 (≈ 0.609 µM) | –
CC[C@@]1(O)C[C@H](O[C@H]2C[C@H](NC(=O)C(F)(F)F)[C@@H](N=[N+]=[N-])[C@H](C)O2)c2c(O)c3c(c(O)c2[C@H]1O)C(=O)c1cccc(O)c1C3=O [compound 17, 7-O-(4'-Azido-2',3',4',6'-tetradeoxy-3'-trifluoroacetamido-alpha-L-arabinohexopyranosyl)-β-rhodomycinone] | – | – | – | – | IC50 (L1210 leukemia cells; [1]): 1.4 µg/mL (≈ 2.2 µM); IC50 (L1210 cells; Mus musculus, L1210, 72 h, read-out: IC50 MTT assay L1210): 0.33 µg/mL (≈ 0.518 µM); IC50 (A 549 cells; Homo sapiens, A549, 72 h, read-out: IC50 MTT assay A549): 0.52 µg/mL (≈ 0.817 µM); IC50 (HT 29 cells; HT-29, 72 h): 0.34 µg/mL (≈ 0.534 µM)
COc1cccc2c1C(=O)c1c(O)c3c(c(O)c1C2=O)C[C@@](O)(C(C)=O)C[C@@H]3O[C@H]1C[C@H](N)[C@H](O)[C@H](C)O1 [daunorubicin] | – | – | – | – | side effects of the treatment (patients; in vivo): damage to the circulatory system and symptoms characteristic thereof

Continued, in another order:

IC50 (L1210 cells; [2]) [µg/mL] | IC50 (A 549 cells; [3]) [µg/mL] | IC50 (HT 29 cells; HT-29, HT29, 72 h) [µg/mL] | SMILES | IC50 (L1210 leukemia cells; [4]) [µg/mL] | further results
0.043 (≈ 0.0812 µM) | 0.14 (≈ 0.264 µM) | 0.043 (≈ 0.0812 µM) | CC[C@@]1(O)C[C@H](O[C@H]2C[C@H](O)[C@H](N)[C@H](C)O2)c2c(O)c3c(c(O)c2[C@H]1O)C(=O)c1cccc(OC)c1C3=O [compound 8] | – | –
0.039 (≈ 0.0738 µM) | 0.095 (≈ 0.18 µM) | 0.033 (≈ 0.0624 µM) | CC[C@@]1(O)C[C@H](O[C@H]2C[C@H](N)[C@H](N)[C@H](C)O2)c2c(O)c3c(c(O)c2[C@H]1O)C(=O)c1cccc(OC)c1C3=O [compound 10, 4-O-Methyl-7-O-(3',4'-diamino-2',3',4',6'-tetradeoxy-alpha-L-lyxohexopyranosyl)-β-rhodomycinone] | – | –
0.03 (≈ 0.0491 µM) | 0.027 (≈ 0.0442 µM) | 0.022 (≈ 0.036 µM) | CC[C@@]1(O)C[C@H](O[C@H]2C[C@H](N)[C@@H](NC(=O)C(F)(F)F)[C@H](C)O2)c2c(O)c3c(c(O)c2[C@H]1O)C(=O)c1cccc(O)c1C3=O [compound 12, 7-O-(3'-Amino-2',3',4',6'-tetradeoxy-4'-trifluoroacetamido-alpha-L-arabinohexopyranosyl)-β-rhodomycinone] | 0.44 (≈ 0.721 µM) | –
0.1 (≈ 0.157 µM) | 0.1 (≈ 0.157 µM) | 0.2 (≈ 0.314 µM) | CC[C@@]1(O)C[C@H](O[C@H]2C[C@H](N=[N+]=[N-])[C@H](NC(=O)C(F)(F)F)[C@H](C)O2)c2c(O)c3c(c(O)c2[C@H]1O)C(=O)c1cccc(O)c1C3=O [compound 13, 7-O-(3'-Azido-2',3',4',6'-tetradeoxy-4'-trifluoroacetamido-alpha-L-lyxohexopyranosyl)-β-rhodomycinone] | 0.29 (≈ 0.456 µM) | –
0.01 (≈ 0.0194 µM) | 0.04 (≈ 0.0777 µM) | 0.069 (≈ 0.134 µM) | CC[C@@]1(O)C[C@H](O[C@H]2C[C@H](N)[C@H](N)[C@H](C)O2)c2c(O)c3c(c(O)c2[C@H]1O)C(=O)c1cccc(O)c1C3=O [compound 16, 7-O-(3',4'-Diamino-2',3',4',6'-tetradeoxy-alpha-L-lyxohexo-pyranosyl)-β-rhodomycinone] | 0.069 (≈ 0.134 µM) | –
